Experimental data published in ChEMBL document CHEMBL1201862, “PubChem BioAssay data set” (2004).
Activity calls are given as the source filed them.

Legend:
[1] = molecular target: T1, Corticotropin-releasing factor receptor 2/Corticotropin-releasing factor-binding protein (Homo sapiens, UniProt P24387+Q13324); assay: activators of CRF receptor 2 with binding protein – uHTS hits, confirmation (AID 602473); format: functional; conditions: read-out: EC50_Mean
T1 sequence (Q13324 whole entry): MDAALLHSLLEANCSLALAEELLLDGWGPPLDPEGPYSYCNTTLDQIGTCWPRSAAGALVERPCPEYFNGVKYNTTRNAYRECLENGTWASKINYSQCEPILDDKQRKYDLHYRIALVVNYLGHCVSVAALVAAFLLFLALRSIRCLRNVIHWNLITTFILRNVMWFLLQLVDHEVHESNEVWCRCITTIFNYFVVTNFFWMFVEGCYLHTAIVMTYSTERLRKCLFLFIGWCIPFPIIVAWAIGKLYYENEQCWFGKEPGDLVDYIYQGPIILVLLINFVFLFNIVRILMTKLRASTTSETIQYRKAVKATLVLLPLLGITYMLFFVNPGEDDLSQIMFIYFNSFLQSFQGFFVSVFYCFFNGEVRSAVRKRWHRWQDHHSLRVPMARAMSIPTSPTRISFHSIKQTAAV
T1 sequence (P24387 whole entry): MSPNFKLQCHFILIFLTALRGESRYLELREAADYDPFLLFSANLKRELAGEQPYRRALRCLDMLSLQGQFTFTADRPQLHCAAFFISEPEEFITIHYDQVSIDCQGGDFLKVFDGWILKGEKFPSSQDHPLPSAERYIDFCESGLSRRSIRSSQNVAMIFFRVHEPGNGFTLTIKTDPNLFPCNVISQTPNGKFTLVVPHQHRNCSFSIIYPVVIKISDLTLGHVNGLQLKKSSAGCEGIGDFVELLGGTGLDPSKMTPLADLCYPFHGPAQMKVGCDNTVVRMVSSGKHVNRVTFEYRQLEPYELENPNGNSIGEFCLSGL

[2] = molecular target: Heat shock protein HSP 90-alpha (Homo sapiens, UniProt P07900); assay: Luminescence-based dose response biochemical high throughput screening assay for inhibitors of the Heat Shock Protein 90 (HSP90). [Related pubchem assays: 1831 (Summary AID.), 1846 (Confirmation screen.), 1789 (Primary screen.)]
[3] = molecular target: DNA dC->dU-editing enzyme APOBEC-3G (Homo sapiens, UniProt Q9HC16); assay: Dose Response confirmation of small molecule APOBEC3G DNA Deaminase Inhibitors via a fluorescence-based single-stranded DNA deaminase assay. [Related pubchem assays (depositor defined):AID493012, AID493028]; format: functional
Chain of DNA dC->dU-editing enzyme APOBEC-3G (Q9HC16 whole entry): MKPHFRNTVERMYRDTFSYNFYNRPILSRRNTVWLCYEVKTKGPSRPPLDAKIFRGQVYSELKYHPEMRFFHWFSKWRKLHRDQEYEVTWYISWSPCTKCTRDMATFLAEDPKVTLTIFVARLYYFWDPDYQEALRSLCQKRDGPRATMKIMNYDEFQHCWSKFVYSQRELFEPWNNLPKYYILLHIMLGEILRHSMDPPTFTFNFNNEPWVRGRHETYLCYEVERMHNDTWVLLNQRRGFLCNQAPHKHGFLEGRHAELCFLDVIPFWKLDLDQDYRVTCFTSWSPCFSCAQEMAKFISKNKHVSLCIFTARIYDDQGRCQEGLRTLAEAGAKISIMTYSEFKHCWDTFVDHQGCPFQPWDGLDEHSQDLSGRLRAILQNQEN

[4] = molecular target: T2, Mannose-6-phosphate isomerase (Homo sapiens, UniProt P34949); assay: MPI inhibition at elevated mannose 6-phosphate – biochemical, fluorescence intensity, high mannose 6-phosphate, primary screen (AID 1220)
T2 sequence (P34949 whole entry): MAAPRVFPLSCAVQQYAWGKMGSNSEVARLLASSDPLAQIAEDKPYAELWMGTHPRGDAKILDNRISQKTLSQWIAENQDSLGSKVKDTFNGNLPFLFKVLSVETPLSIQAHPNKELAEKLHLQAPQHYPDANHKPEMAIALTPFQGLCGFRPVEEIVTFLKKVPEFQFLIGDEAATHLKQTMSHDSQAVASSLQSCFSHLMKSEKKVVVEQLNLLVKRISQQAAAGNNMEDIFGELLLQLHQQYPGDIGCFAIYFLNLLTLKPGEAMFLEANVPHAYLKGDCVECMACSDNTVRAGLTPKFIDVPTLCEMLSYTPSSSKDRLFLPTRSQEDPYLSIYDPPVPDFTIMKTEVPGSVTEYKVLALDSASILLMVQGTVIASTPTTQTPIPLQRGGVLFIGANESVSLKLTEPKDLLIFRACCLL

[5] = molecular target: Eukaryotic translation initiation factor 4E (Mus musculus, UniProt P63073); assay: blockers of eIF4G binding by eIF4E – biochemical, TR-FRET, dose response (AID 855); format: functional;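 also: potency for disrupting eIF4E binding to eIF4GI seen as loss of FRET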
Chain of Eukaryotic translation initiation factor 4E (P63073 whole entry): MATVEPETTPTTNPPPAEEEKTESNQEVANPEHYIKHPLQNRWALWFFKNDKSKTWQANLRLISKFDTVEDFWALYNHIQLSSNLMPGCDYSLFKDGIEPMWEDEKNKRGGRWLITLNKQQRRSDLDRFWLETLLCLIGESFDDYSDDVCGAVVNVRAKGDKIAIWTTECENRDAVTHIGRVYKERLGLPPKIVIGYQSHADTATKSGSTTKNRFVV

Protein Tat = Protein Tat (Human immunodeficiency virus type 1 group M subtype B (isolate HXB2)(HIV-1), UniProt P04608); format: functional;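 also: tat binding to TAR RNA read out by fluorescence polarization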
Chain of Protein Tat (P04608 whole entry): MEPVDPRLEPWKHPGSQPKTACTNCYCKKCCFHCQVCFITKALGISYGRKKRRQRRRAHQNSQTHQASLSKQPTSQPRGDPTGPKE

[6] = molecular target: T3, Replicative DNA helicase DnaB (Mycobacterium tuberculosis, UniProt P9WMR3); assay: DnaB intein splicing inhibitors, dose response, biochemical, cell-free fluorescence (AID 449749); format: functional
T3 sequence (P9WMR3 whole entry): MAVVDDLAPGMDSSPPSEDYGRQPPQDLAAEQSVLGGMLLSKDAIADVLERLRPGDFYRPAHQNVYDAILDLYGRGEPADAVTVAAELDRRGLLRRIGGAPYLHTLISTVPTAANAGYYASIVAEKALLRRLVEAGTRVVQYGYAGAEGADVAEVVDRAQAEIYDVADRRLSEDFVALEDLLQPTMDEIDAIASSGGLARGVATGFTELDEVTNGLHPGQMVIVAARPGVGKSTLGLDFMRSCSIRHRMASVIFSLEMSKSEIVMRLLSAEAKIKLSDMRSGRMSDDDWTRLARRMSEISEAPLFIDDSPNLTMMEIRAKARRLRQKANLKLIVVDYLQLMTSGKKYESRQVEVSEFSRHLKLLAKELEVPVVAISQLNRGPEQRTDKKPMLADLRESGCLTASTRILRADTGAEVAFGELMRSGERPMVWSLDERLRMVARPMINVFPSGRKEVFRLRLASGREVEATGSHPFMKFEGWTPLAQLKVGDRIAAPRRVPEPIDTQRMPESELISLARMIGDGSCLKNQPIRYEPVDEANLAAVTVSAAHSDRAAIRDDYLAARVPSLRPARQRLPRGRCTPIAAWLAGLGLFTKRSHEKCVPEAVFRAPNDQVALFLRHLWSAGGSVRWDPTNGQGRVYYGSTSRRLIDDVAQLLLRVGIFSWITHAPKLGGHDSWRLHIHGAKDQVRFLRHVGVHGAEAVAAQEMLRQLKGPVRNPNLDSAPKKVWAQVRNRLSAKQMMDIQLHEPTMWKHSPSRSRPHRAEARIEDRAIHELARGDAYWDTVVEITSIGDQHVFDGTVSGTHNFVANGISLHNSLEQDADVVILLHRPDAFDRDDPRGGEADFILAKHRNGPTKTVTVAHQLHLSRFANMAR

Protein RecA = molecular target: T4, Protein RecA (Mycobacterium tuberculosis, UniProt P9WHJ3); assay: Fluorescence Cell-Free Homogeneous Dose Retest to Identify Inhibitors of RecA-Intein Splicing Activity. [Related pubchem assays (depositor defined):AID2097, AID2223, AID489010, AID492950]; format: functional
T4 sequence (P9WHJ3 whole entry): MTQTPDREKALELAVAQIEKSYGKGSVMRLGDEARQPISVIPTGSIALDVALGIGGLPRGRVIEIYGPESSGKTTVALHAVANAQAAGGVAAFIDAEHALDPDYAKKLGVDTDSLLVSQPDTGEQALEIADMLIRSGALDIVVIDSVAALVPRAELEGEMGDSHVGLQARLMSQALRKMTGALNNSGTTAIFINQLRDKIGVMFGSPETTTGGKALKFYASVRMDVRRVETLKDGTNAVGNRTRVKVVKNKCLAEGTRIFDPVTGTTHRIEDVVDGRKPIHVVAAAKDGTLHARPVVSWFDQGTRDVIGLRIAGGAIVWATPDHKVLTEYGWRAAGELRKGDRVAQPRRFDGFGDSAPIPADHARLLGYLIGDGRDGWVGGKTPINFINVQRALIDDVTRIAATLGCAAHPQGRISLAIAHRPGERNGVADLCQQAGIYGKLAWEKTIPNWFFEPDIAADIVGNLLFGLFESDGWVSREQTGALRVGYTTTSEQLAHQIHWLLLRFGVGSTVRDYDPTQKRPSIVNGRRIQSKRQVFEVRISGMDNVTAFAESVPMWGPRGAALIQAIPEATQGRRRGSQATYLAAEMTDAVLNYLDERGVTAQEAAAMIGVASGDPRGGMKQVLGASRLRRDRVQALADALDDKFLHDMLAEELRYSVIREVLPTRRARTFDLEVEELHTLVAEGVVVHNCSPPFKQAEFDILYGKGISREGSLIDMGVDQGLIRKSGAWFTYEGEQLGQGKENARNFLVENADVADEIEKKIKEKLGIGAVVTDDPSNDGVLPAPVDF

Hexokinase HKDC1 = molecular target: T5, Hexokinase HKDC1 (Homo sapiens, UniProt Q2TB90); assay: inhibition of HKDC1 glucose phosphorylation – biochemical, W721R variant, dose response (AID 504729); format: functional
T5 sequence (Q2TB90 whole entry): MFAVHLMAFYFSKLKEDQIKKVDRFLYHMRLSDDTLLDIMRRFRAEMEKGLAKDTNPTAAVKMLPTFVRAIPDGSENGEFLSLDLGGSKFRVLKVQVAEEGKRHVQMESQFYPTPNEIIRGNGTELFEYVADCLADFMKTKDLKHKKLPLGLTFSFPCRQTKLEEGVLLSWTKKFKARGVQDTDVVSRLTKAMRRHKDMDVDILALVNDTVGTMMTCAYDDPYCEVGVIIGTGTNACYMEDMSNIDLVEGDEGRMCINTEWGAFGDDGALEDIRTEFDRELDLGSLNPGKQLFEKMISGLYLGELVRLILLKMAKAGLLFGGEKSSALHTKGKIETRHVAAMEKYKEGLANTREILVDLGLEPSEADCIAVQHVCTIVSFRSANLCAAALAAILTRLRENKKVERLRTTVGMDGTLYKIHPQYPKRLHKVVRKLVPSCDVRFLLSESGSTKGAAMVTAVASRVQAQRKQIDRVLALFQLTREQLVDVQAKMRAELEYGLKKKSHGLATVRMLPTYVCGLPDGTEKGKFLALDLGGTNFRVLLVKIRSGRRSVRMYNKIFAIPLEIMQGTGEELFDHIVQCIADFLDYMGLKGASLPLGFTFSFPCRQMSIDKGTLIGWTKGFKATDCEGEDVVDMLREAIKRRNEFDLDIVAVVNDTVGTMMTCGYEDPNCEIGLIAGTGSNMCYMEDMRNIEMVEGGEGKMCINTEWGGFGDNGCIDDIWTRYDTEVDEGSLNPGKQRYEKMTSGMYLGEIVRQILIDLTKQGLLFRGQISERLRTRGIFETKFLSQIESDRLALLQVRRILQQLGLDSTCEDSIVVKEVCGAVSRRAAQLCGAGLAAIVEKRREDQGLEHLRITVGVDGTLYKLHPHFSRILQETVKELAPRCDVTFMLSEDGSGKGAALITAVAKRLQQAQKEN

Genome polyprotein = Genome polyprotein (dengue virus type 2, UniProt P29990); assay: flavivirus cap methylation enzyme inhibition – biochemical, confirmation dose response, primary screen (AID 588689); format: functional
Chain of Genome polyprotein (P29990 2492-3391 limits assumed): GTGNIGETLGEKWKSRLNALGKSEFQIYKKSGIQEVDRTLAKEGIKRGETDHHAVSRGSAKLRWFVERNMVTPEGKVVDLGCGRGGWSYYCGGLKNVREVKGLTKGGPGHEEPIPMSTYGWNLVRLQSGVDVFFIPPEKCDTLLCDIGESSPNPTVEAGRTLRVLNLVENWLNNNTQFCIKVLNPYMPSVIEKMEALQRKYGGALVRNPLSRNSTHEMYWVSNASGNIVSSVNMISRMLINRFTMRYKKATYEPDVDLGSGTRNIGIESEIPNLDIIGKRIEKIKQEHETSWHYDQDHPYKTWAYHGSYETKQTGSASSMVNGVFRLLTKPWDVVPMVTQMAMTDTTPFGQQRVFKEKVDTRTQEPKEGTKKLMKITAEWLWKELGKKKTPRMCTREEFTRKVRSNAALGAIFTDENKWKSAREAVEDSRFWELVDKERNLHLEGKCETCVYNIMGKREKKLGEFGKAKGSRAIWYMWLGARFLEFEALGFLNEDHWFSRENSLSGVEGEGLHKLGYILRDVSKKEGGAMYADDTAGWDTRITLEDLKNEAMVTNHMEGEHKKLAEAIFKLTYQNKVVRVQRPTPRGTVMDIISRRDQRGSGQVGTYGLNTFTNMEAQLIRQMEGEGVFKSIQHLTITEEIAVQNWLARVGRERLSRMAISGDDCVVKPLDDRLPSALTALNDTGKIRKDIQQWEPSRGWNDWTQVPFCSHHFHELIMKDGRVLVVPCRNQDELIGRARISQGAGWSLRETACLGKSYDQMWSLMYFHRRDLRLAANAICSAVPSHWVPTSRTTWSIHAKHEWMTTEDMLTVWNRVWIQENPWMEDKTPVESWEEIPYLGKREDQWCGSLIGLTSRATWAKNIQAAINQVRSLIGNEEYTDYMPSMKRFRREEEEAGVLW

[7] = molecular target: Glucose-6-phosphate 1-dehydrogenase (Homo sapiens, UniProt P11413); assay: inhibition of Homo sapiens G6PD, dose series – biochemical, fluorescence, selectivity assay for P. falciparum G6PD inhibitor project, dose response (AID 504792); format: functional
Chain of Glucose-6-phosphate 1-dehydrogenase (P11413 whole entry): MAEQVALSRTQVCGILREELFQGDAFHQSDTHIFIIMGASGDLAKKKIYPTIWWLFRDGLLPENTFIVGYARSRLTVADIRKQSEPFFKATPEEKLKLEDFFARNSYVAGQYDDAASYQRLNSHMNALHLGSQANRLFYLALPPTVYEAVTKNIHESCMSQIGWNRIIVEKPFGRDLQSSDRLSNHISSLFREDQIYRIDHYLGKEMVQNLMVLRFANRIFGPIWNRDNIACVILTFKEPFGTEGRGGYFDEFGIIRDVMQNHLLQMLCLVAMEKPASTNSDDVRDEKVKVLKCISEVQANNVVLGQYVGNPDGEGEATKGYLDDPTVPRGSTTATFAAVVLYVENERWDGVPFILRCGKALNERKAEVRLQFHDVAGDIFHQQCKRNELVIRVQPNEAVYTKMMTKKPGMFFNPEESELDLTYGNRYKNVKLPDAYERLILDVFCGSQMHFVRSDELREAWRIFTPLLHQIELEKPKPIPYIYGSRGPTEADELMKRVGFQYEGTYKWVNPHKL

[8] = molecular target: T6, E3 ubiquitin-protein ligase XIAP (Homo sapiens, UniProt P98170); assay: Counter Screen using XIAP-Bir3 for Chemical Antagonists of Bir1/2 domains of IAP-family anti-apoptotic proteins. [Related pubchem assays (depositor defined):AID1018, AID1449, AID1514, AID1638, AID1749, AID1750, AID488957, AID488963]
T6 sequence (P98170 whole entry): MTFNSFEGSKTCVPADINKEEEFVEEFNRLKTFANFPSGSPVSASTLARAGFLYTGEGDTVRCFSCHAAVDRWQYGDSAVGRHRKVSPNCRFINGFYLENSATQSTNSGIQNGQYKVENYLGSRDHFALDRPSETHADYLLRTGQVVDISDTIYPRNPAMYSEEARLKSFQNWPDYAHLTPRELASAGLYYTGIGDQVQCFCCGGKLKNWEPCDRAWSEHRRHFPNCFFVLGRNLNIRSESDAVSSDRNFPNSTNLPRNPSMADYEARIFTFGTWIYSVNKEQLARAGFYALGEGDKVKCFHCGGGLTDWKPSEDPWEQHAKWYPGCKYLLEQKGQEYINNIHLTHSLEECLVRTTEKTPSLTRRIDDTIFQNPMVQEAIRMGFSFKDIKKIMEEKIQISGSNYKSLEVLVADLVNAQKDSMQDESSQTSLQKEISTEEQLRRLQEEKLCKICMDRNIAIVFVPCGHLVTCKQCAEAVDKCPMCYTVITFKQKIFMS

[9] = molecular target: T6, E3 ubiquitin-protein ligase XIAP; assay: small molecules displacing peptide from XIAP – biochemical, IAP family, fluorescence polarization (AID 1018); format: functional
[10] = HIV-1 Vif–A3G interaction blockers – biochemical, TR-FRET, GST-Vif 1-94, biotin-A3G peptide, dose response retest, primary screen (AID 1117319); format: functional;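 also: TR-FRET signal of purified GST-Vif binding a biotinylated A3G peptide; inhibitors lower the FRET signal by blocking Vif and A3G binding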

For `Cc1ccc2oc(=O)c(/C=C(\O)c3ccco3)nc2c1`, the EC50 [1] was 4.74 µM (active) and the IC50 [2] was 5.13 µM (active).
For `Cc1cccc(N(O)C(=O)Nc2cccc(Cl)c2)c1`, the IC50 [2] was 5.44 µM (active).
In the case of `O=C(/C=C/c1ccccc1)Nc1cccc(S(=O)(=O)Nc2ccccc2F)c1`, the IC50 [3] was 31.9 µM (active) and the IC50 [4] was 20 µM (active).
With `Oc1nc2ccccc2n2c(-c3ccccc3)nnc12` the IC50 [5] was 34.4 µM (inactive), the IC50 (Protein Tat) was > 100 µM (active) and the AC50 [6] was > 380 µM (inactive). The EC50 (Protein RecA) was 12.8 µM (active), the IC50 (Hexokinase HKDC1) was 7.52 µM (active) and the IC50 (Genome polyprotein) was 8.26 µM (active). The IC50 [7] was 41.6 µM (inactive), the IC50 [8] was > 100 µM (inactive) and the IC50 [9] was > 100 µM (not active).
For `Cc1ccc(CCNC(=O)C2CCCN(S(=O)(=O)c3c(C)noc3/C=C/N(C)C)C2)cc1` (stereo not given), the IC50 [10] was > 100 µM (active).
